# Source: patent US11207320B2, “Compositions and methods for cancer expressing PDE3A or SLFN12” (The Broad Institute, Inc., priority 2015, dated 2021)
# Test system: 766 cancer cell lines
# Assay: Large-scale cell-line viability measurements (766 cancer cell lines, 72 h, AUC)
# Assay type: cell-based, human
# Settings: 72 hours
# Procedure: Cell lines were treated for 72 hours with concentrations ranging from 66.4 μM-2 nM in 2-fold step dilutions.
# To characterize cellular sensitivity to DNMDP further, 766 genomically characterized cancer cell lines were screened for DMNDP sensitivity at concentrations ranging from 66.4 μM to 2 nM in 2-fold dilution steps for 72 hours. From these cell lines, 22 cell lines were categorized as sensitive with a robust Z-score lower than −4, which represented multiple lineages including multiple melanoma cell lines, amongst others (Table 1).
# The sensitivity of […] cancer cell lines (CCLs) was measured drawn from 23 different lineages to DNMDP. Each cell line was plated in its preferred media in white opaque 1536-plates at a density of 500 cells/well. After incubating overnight, DNMDP was added by acoustic transfer at 16 concentrations ranging from 66.4 μM-2 nM in 2-fold steps in duplicate (Labcyte Echo 555, Labcyte Inc., Sunnyvale, Calif.). After 72 hours treatment, cellular ATP levels were measured as a surrogate for viability (CELLTITERGLO®, Promega Corporation, Madison, Wis.) according to manufacturer's protocols using a ViewLux Microplate Imager (PerkinElmer, Waltham, Mass.) and normalized to background (media-only) and vehicle (DMSO)-treated control wells.
# Concentration response curves were fit using nonlinear fits to 2- or 3-parameter sigmoid functions through all 16 concentrations with the low-concentration asymptote set to the DMSO-normalized value, and an optimal 8-point dose curve spanning the range of compound-sensitivity was identified. The area under the 8-point dose curve (AUC) was computed by numeric integration as a metric for sensitivity for further analysis. Similar sensitivity measurements have been obtained for a collection of 480 other compounds, enabling analyses that identify cell lines responding uniquely to DNMDP (see Broad Institute Cancer Therapeutics Response Portal, a dataset to identify comprehensively relationships between genetic and lineage features of human cancer cell lines and small-molecule sensitivities for complete list of compounds).
# [1] = MOLM6 (HAEMATOPOIETIC AND LYMPHOID TISSUE)
# [2] = MOLT13 (HAEMATOPOIETIC AND LYMPHOID TISSUE)
# [3] = MV411 (HAEMATOPOIETIC AND LYMPHOID TISSUE)
# [4] = NALM6 (HAEMATOPOIETIC AND LYMPHOID TISSUE)
# [5] = NB4 (HAEMATOPOIETIC AND LYMPHOID TISSUE)
# [6] = NCO2 (HAEMATOPOIETIC AND LYMPHOID TISSUE)
# [7] = OCIAML2 (HAEMATOPOIETIC AND LYMPHOID TISSUE)
# [8] = OCILY19 (HAEMATOPOIETIC AND LYMPHOID TISSUE)
# [9] = PECAPJ15 (UPPER AERODIGESTIVE TRACT)
# [10] = PF382 (HAEMATOPOIETIC AND LYMPHOID TISSUE)
# [11] = RPMI8402 (HAEMATOPOIETIC AND LYMPHOID TISSUE)
# [12] = SCC4 (UPPER AERODIGESTIVE TRACT)
# [13] = SNU1214 (UPPER AERODIGESTIVE TRACT)
# [14] = U118MG (CENTRAL NERVOUS SYSTEM)
# [15] = U266B1 (HAEMATOPOIETIC AND LYMPHOID TISSUE)
# [16] = U937 (HAEMATOPOIETIC AND LYMPHOID TISSUE)
structure (smiles),measurement,setting,value
"CCN(CC)c1ccc(C2=NNC(=O)CC2C)cc1[N+](=O)[O-] (centres unmarked) [DNMDP, 6-(4-(diethylamino)-3-nitrophenyl)-5-methyl-4,5-dihydropyridazin-3(2H)-one]",Robust Z-score,LU99 (LUNG),−0.8744
same,DNMDP AUC,LXF289 (LUNG),5.734
same,Robust Z-score,LXF289 (LUNG),−0.9454
same,DNMDP AUC,MALME3M (SKIN),6.112
same,Robust Z-score,MALME3M (SKIN),−0.5486
same,DNMDP AUC,MCF7 (BREAST),6.1256
same,Robust Z-score,MCF7 (BREAST),−0.5343
same,DNMDP AUC,MEWO (SKIN),5.738
same,Robust Z-score,MEWO (SKIN),−0.9412
same,DNMDP AUC,MKN7 (STOMACH),6.1453
same,Robust Z-score,MKN7 (STOMACH),−0.5136
same,DNMDP AUC,[1],6.0447
same,Robust Z-score,[1],−0.6192
same,DNMDP AUC,[2],6.084
same,Robust Z-score,[2],−0.578
same,DNMDP AUC,[3],5.6905
same,Robust Z-score,[3],−0.991
same,DNMDP AUC,[4],5.7872
same,Robust Z-score,[4],−0.8895
same,DNMDP AUC,[5],6.219
same,Robust Z-score,[5],−0.4363
same,DNMDP AUC,NCIH23 (LUNG),6.1854
same,Robust Z-score,NCIH23 (LUNG),−0.4716
same,DNMDP AUC,NCIH1184 (LUNG),6.1776
same,Robust Z-score,NCIH1184 (LUNG),−0.4797
same,DNMDP AUC,NCIH1355 (LUNG),6.171
same,Robust Z-score,NCIH1355 (LUNG),−0.4867
same,DNMDP AUC,NCIH1435 (LUNG),5.9756
same,Robust Z-score,NCIH1435 (LUNG),−0.6918
same,DNMDP AUC,NCIH1563 (LUNG),1.0887
same,Robust Z-score,NCIH1563 (LUNG),−5.821
same,DNMDP AUC,NCIH1793 (LUNG),6.2189
same,Robust Z-score,NCIH1793 (LUNG),−0.4364
same,DNMDP AUC,NCIH2009 (LUNG),5.7594
same,Robust Z-score,NCIH2009 (LUNG),−0.9187
same,DNMDP AUC,NCIH2122 (LUNG),1.3105
same,Robust Z-score,NCIH2122 (LUNG),−5.588
same,DNMDP AUC,NCIH2141 (LUNG),5.7218
same,Robust Z-score,NCIH2141 (LUNG),−0.9582
same,DNMDP AUC,[6],5.7088
same,Robust Z-score,[6],−0.9718
same,DNMDP AUC,[7],5.8945
same,Robust Z-score,[7],−0.7769
same,DNMDP AUC,[8],6.1512
same,Robust Z-score,[8],−0.5075
same,DNMDP AUC,ONCODG1 (OVARY),5.8296
same,Robust Z-score,ONCODG1 (OVARY),−0.845
same,DNMDP AUC,PC14 (LUNG),6.2003
same,Robust Z-score,PC14 (LUNG),−0.4559
same,DNMDP AUC,[9],5.789
same,Robust Z-score,[9],−0.8876
same,DNMDP AUC,[10],5.8519
same,Robust Z-score,[10],−0.8216
same,DNMDP AUC,RERFLCAD1 (LUNG),6.1862
same,Robust Z-score,RERFLCAD1 (LUNG),−0.4707
same,DNMDP AUC,RKN (SOFT TISSUE),6.1579
same,Robust Z-score,RKN (SOFT TISSUE),−0.5004
same,DNMDP AUC,[11],5.9827
same,Robust Z-score,[11],−0.6843
same,DNMDP AUC,RVH421 (SKIN),1.4556
same,Robust Z-score,RVH421 (SKIN),−5.436
same,DNMDP AUC,[12],6.0502
same,Robust Z-score,[12],−0.6135
same,DNMDP AUC,SKCO1 (LARGE INTESTINE),5.688
same,Robust Z-score,SKCO1 (LARGE INTESTINE),−0.9936
same,DNMDP AUC,SKLU1 (LUNG),6.0109
same,Robust Z-score,SKLU1 (LUNG),−0.6547
same,DNMDP AUC,SKMEL3 (SKIN),1.2215
same,Robust Z-score,SKMEL3 (SKIN),−5.682
same,DNMDP AUC,SKMEL5 (SKIN),5.9639
same,Robust Z-score,SKMEL5 (SKIN),−0.7041
same,DNMDP AUC,SKNBE2 (AUTONOMIC GANGLIA),5.7717
same,Robust Z-score,SKNBE2 (AUTONOMIC GANGLIA),−0.9058
same,DNMDP AUC,SKNSH (AUTONOMIC GANGLIA),5.8424
same,Robust Z-score,SKNSH (AUTONOMIC GANGLIA),−0.8316
same,DNMDP AUC,SNU119 (OVARY),6.1473
same,Robust Z-score,SNU119 (OVARY),−0.5115
same,DNMDP AUC,SNU620 (STOMACH),6.1039
same,Robust Z-score,SNU620 (STOMACH),−0.5571
same,DNMDP AUC,SNU869 (BILIARY TRACT),5.7543
same,Robust Z-score,SNU869 (BILIARY TRACT),−0.9241
same,DNMDP AUC,[13],6.2071
same,Robust Z-score,[13],−0.4488
same,DNMDP AUC,SNU1272 (KIDNEY),6.0226
same,Robust Z-score,SNU1272 (KIDNEY),−0.6424
same,DNMDP AUC,SUIT2 (PANCREAS),5.8956
same,Robust Z-score,SUIT2 (PANCREAS),−0.7757
same,DNMDP AUC,T3M10 (LUNG),6.1867
same,Robust Z-score,T3M10 (LUNG),−0.4702
same,DNMDP AUC,TE8 (OESOPHAGUS),6.2119
same,Robust Z-score,TE8 (OESOPHAGUS),−0.4437
same,DNMDP AUC,TE125T (SOFT TISSUE),5.744
same,Robust Z-score,TE125T (SOFT TISSUE),−0.9349
same,DNMDP AUC,TUHR14TKB (KIDNEY),5.8451
same,Robust Z-score,TUHR14TKB (KIDNEY),−0.8287
same,DNMDP AUC,[14],6.1481
same,Robust Z-score,[14],−0.5107
same,DNMDP AUC,[15],6.1906
same,Robust Z-score,[15],−0.4661
same,DNMDP AUC,[16],6.1777
same,Robust Z-score,[16],−0.4796
